Experimental data from the supplement of paper PMC10307832.

Assays:
Assay in all cases: relative viability (nuclei count vs DMSO), 5 days (fraction); higher = more cells survive
Alisertib = compound: COc1cc(Nc2ncc3c(n2)-c2ccc(Cl)cc2C(c2c(F)cccc2OC)=NC3)ccc1C(=O)O [Alisertib]
In short: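 Nuclei counted with MetaXpress define viability as the ratio of treated to vehicle wells, given as a median across plates. The lung cancer cell lines were in 1536-well plates, pinned with five √10-spaced library-drug doses and imaged at 4× after 5 days and Hoechst staining. Plates passed with control CV below 25% and at least one doubling.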

Alisertib + Palbociclib = compound: COc1cc(Nc2ncc3c(n2)-c2ccc(Cl)cc2C(c2c(F)cccc2OC)=NC3)ccc1C(=O)O [Alisertib] + CC(=O)c1c(C)c2cnc(Nc3ccc(N4CCNCC4)cn3)nc2n(C2CCCC2)c1=O [Palbociclib] (partner 0.5 µM)
In short: (§1)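 Values are medians from duplicate plates. Each reflects relative viability, defined as the nuclei count of treated wells over that of vehicle wells. Lung cancer cell lines in 1536-well plates were pin-tool dosed one day after seeding with one drug alone or with a fixed anchor-drug dose plus five library-drug doses (not always all listed) in √10 steps, then fixed, stained and imaged at 4× after 5 days.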

Alisertib + Foretinib = compound: COc1cc(Nc2ncc3c(n2)-c2ccc(Cl)cc2C(c2c(F)cccc2OC)=NC3)ccc1C(=O)O [Alisertib] + COc1cc2c(Oc3ccc(NC(=O)C4(C(=O)Nc5ccc(F)cc5)CC4)cc3F)ccnc2cc1OCCCN1CCOCC1 [Foretinib] (partner 0.25 µM)
In short: as §1

Alisertib + OSI-027 = compound: COc1cc(Nc2ncc3c(n2)-c2ccc(Cl)cc2C(c2c(F)cccc2OC)=NC3)ccc1C(=O)O [Alisertib] + COc1cccc2cc(-c3nc([C@H]4CC[C@H](C(=O)O)CC4)n4ncnc(N)c34)[nH]c12 [OSI-027] (partner 0.5 µM)
In short: as §1

Cell Line | relative viability (Alisertib; 0.005 µM) | relative viability (Alisertib; 0.01581 µM) | relative viability (Alisertib; 0.05 µM) | relative viability (Alisertib; 0.1581 µM) | relative viability (Alisertib; 0.5 µM) | relative viability (Alisertib + Palbociclib; first compound 0.005 µM) | relative viability (Alisertib + Palbociclib; first compound 0.01581 µM) | relative viability (Alisertib + Palbociclib; first compound 0.05 µM) | relative viability (Alisertib + Palbociclib; first compound 0.1581 µM) | relative viability (Alisertib + Palbociclib; first compound 0.5 µM) | relative viability (Alisertib + Foretinib; first compound 0.005 µM) | relative viability (Alisertib + Foretinib; first compound 0.01581 µM) | relative viability (Alisertib + Foretinib; first compound 0.05 µM) | relative viability (Alisertib + Foretinib; first compound 0.1581 µM) | relative viability (Alisertib + Foretinib; first compound 0.5 µM) | relative viability (Alisertib + OSI-027; first compound 0.005 µM) | relative viability (Alisertib + OSI-027; first compound 0.01581 µM) | relative viability (Alisertib + OSI-027; first compound 0.05 µM) | relative viability (Alisertib + OSI-027; first compound 0.1581 µM) | relative viability (Alisertib + OSI-027; first compound 0.5 µM)
NCI-H23 | 0.752 | 0.529 | 0.272 | 0.217 | 0.197 | 0.476 | 0.442 | 0.319 | 0.205 | 0.203 | 0.759 | 0.452 | 0.269 | 0.235 | 0.211 | 0.518 | 0.377 | 0.287 | 0.17 | 0.144
NCI-H322M | 0.874 | 0.894 | 0.812 | 0.501 | 0.493 | 0.473 | 0.475 | 0.477 | 0.413 | 0.417 | 0.896 | 0.925 | 0.649 | 0.402 | 0.397 | 0.568 | 0.517 | 0.466 | 0.326 | 0.351
NCI-H358 | 0.791 | 0.797 | 0.2 | 0.147 | 0.14 | 0.111 | 0.117 | 0.104 | 0.0711 | 0.0985 | 0.608 | 0.485 | 0.181 | 0.111 | 0.0732 | 0.716 | 0.507 | 0.144 | 0.0797 | 0.0701
NCI-H441 | 0.839 | 0.662 | 0.201 | 0.179 | 0.188 | 0.182 | 0.225 | 0.117 | 0.125 | 0.123 | 0.845 | 0.546 | 0.308 | 0.262 | 0.232 | 0.532 | 0.446 | 0.222 | 0.22 | 0.215
NCI-H460 | 0.922 | 0.844 | 0.49 | 0.0862 | 0.0474 | 0.143 | 0.13 | 0.123 | 0.0185 | 0.0401 | 0.98 | 0.956 | 0.283 | 0.0899 | 0.0482 | 0.618 | 0.578 | 0.218 | 0.0256 | 0.0214
NCI-H520 | 0.843 | 0.722 | 0.462 | 0.451 | 0.317 | 0.196 | 0.232 | 0.214 | 0.177 | 0.155 | 1.15 | 0.644 | 0.486 | 0.266 | 0.322 | 0.253 | 0.221 | 0.204 | 0.18 | 0.182
NCI-H647 | 0.733 | 0.654 | 0.318 | 0.152 | 0.0801 | 0.282 | 0.332 | 0.161 | 0.0956 | 0.0773 | 1.08 | 1.04 | 0.691 | 0.301 | 0.131 | 0.662 | 0.487 | 0.227 | 0.116 | 0.102
NCI-H650 | 0.724 | 0.856 | 0.394 | 0.258 | 0.209 | 0.326 | 0.327 | 0.191 | 0.159 | 0.163 | 0.926 | 0.902 | 0.407 | 0.226 | 0.222 | 0.396 | 0.459 | 0.239 | 0.203 | 0.159
NCI-H661 | 1.01 | 0.965 | 0.663 | 0.415 | 0.374 | 0.414 | 0.401 | 0.367 | 0.296 | 0.294 | 0.995 | 1.04 | 0.813 | 0.423 | 0.369 | 0.667 | 0.557 | 0.438 | 0.282 | 0.285
NCI-H727 | 0.817 | 0.929 | 0.542 | 0.384 | 0.401 | 0.565 | 0.647 | 0.534 | 0.483 | 0.474 | 0.658 | 0.922 | 0.488 | 0.352 | 0.417 | 0.573 | 0.466 | 0.421 | 0.482 | 0.374
NCI-H838 | 0.833 | 0.831 | 0.617 | 0.313 | 0.191 | 0.189 | 0.291 | 0.177 | 0.154 | 0.132 | 1.03 | 0.971 | 0.605 | 0.394 | 0.202 | 0.334 | 0.397 | 0.311 | 0.16 | 0.119
NCI-H1355 | 0.881 | 0.771 | 0.774 | 0.255 | 0.204 | 0.362 | 0.393 | 0.37 | 0.291 | 0.142 | 0.88 | 0.892 | 0.343 | 0.244 | 0.202 | 0.346 | 0.367 | 0.356 | 0.154 | 0.173
NCI-H1395 | 0.877 | 0.862 | 0.535 | 0.452 | 0.394 | 0.603 | 0.6 | 0.597 | 0.44 | 0.388 | 0.895 | 0.916 | 0.696 | 0.561 | 0.38 | 0.521 | 0.605 | 0.527 | 0.415 | 0.356
NCI-H1437 | 0.896 | 0.836 | 0.605 | 0.344 | 0.203 | 0.241 | 0.289 | 0.217 | 0.172 | 0.144 | 1.08 | 0.939 | 0.796 | 0.454 | 0.236 | 0.722 | 0.699 | 0.394 | 0.219 | 0.154
NCI-H1650 | 0.846 | 0.736 | 0.289 | 0.192 | 0.224 | 0.292 | 0.328 | 0.233 | 0.116 | 0.188 | 1.19 | 0.873 | 0.653 | 0.23 | 0.231 | 0.565 | 0.501 | 0.278 | 0.108 | 0.166
